Data on 16 compounds can be found in patent US8039514B2, “Sulfonamide compounds and use thereof” (Asahi Kasei Pharma Corporation, priority 2008, dated 2011).

The target of the assay is T1, human calcium-sensing receptor (CaSR) (Homo sapiens, UniProt P41180).
T1 construct: expressed in transfected cells
T1 sequence (P41180 20-1078): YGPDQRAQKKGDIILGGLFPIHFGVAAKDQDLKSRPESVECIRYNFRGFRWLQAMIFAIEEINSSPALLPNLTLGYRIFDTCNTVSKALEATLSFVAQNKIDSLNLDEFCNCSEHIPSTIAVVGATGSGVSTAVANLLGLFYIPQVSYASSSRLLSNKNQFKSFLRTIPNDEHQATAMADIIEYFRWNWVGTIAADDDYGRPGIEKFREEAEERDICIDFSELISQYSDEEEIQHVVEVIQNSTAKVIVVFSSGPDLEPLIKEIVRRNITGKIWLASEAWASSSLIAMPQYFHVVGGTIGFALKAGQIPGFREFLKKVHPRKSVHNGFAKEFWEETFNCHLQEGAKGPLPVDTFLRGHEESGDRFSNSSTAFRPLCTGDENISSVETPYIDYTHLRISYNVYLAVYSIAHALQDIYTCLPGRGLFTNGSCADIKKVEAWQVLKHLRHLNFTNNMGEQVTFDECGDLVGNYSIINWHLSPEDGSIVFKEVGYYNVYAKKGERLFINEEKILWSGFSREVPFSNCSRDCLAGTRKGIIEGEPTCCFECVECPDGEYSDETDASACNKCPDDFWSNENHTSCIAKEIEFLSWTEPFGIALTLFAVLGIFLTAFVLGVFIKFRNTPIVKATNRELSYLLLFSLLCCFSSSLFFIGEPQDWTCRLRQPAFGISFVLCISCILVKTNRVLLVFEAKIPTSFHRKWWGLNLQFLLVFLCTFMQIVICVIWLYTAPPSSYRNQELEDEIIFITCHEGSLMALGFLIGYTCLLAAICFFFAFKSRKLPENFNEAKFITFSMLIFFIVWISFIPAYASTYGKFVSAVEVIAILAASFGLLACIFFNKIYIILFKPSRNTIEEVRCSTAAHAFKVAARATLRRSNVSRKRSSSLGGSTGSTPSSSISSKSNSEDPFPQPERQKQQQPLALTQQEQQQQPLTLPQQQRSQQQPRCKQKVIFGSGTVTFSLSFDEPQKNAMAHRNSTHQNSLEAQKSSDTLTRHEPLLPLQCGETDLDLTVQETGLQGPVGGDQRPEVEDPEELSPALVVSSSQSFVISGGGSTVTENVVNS
Put plainly: intracellular Ca assay, CaSR antagonist activity in HEK293/hCaSR cells. Type of assay: cell-based. The conditions noted are these: Fura2-AM, inhibition of response to calcium chloride ligand solution, read-out: IC50 values according to the intracellular Ca assay (CaSR antagonist activity). The protocol: HEK293 cells stably expressing human calcium-sensing receptor (CaSR) (termed HEK293/hCaSR cells) were used. HEK293/hCaSR cells were cultured in a culture medium [DMEM medium containing 0.5 mg/mL Geneticin, 50 Unit/mL penicillin, 50 μg/mL streptomycin and 10% fetal bovine serum (FBS), all manufactured by Invitrogen] to semiconfluent in an incubator at 37° C. under 5% carbon dioxide atmosphere.
Cultured cells were washed with phosphate buffered saline (PBS(−), manufactured by Dainippon Sumitomo Pharmaceutical Company) which had been prewarmed to 37° C., added with PBS(−) containing 10 mM ethylenediamine tetraacetic acid (EDTA), and then incubated in an incubator at 37° C. for 10 minutes. After adding the culture medium to separate the cells, cell suspension was transferred to a centrifuge tube. Cells were collected by centrifuge at 1,500 rpm for 3 minutes, and resuspended in Ca assay buffer [20 mM HEPES buffer (pH 7.4), 115 mM sodium chloride, 5.4 mM potassium chloride, 0.8 mM magnesium chloride, 0.8 mM calcium chloride, 13.8 mM D(+)-glucose (all manufactured by Wako Pure Chemicals) and 0.1% bovine serum albumin (manufactured by SIGMA)] containing 0.2% Pluronic F-127 (manufactured by Molecular Probes) and […] Fura2-AM (manufactured by DOJINDO LABORATORIES) to obtain a cell suspension of 5×10^6 cells/mL. After incubating at 37° C. for 30 minutes, the cells were washed twice with the Ca assay buffer and suspended in the same buffer to obtain a cell suspension of 1×10^6 cells/60 μL. 60 μL of the cell suspension was aliquoted to each well of a 96 well UV microplate (manufactured by Corning Co.) to give a cell plate.
The test compound was diluted with the Ca assay buffer to five times the final concentration and then 80 μL of the diluted compound was applied to each well of a 96 well round bottomed microplate (manufactured by Corning Co.) to give a sample plate. 80 μL of the Ca assay buffer containing 7.5 mM calcium chloride (i.e., ligand solution) was applied to each well of a 96 well round bottomed microplate to give a ligand plate. Then, thus prepared sample plate, ligand plate, and the cell plate were placed in Functional Drug Screening System (FDSS) 4000 (manufactured by Hamamatsu Photonics K.K.) which had been preswitched on and prewarmed to 37° C. Measurements were then carried out as follows. After incubating the cell plate for 180 seconds, fluorescence intensity was measured every two seconds (excitation wavelength; 340 nm and 380 nm, measurement wavelength; 500 nm). After the measurement for 40 seconds, 20 μL of the test compound solution from the sample plate was added to the cell plate, followed by continuous measurement for 160 seconds. Then, 20 μL of the ligand solution from the ligand plate was added to the cell plate, followed by continuous measurement for 100 seconds.
Amount of change in intracellular Ca concentration is indicated as a peak height of the ratio of the fluorescence intensity with excitation of 340 nm and 380 nm (i.e., fluorescence intensity with excitation at 340 nm/fluorescence intensity with excitation at 380 nm) that is obtained from the difference between the maximum ratio after adding the ligand solution and the ratio before adding the ligand solution. Further, when the peak height obtained from the Ca assay buffer containing no test compound has inhibition ratio of 0% while the peak height obtained from the Ca assay buffer containing no calcium chloride as a ligand solution has inhibition ratio of 100%, inhibition ratio for each test compound (i.e., CaSR antagonist activity) was calculated.
For `CCc1cc(-c2ccc(CCC(=O)O)cc2)ccc1S(=O)(=O)N(C)C[C@H](O)CNC(C)(C)CCCc1cccc(F)c1` [Exp. 9-90, (R)-3-(3′-ethyl-4′-(N-(3-(5-(3-fluorophenyl)-2-methylpentan-2-ylamino)-2-hydroxypropyl)-N-methylsulfamoyl)biphenyl-4-yl)propionic acid], the IC50 (commonly the concentration at which inhibition is half-maximal) was no more than 300 nM.

For `CN(C[C@H](O)CNC(C)(C)Cc1ccc2ccccc2c1)S(=O)(=O)c1cccc(-c2ccc(C(=O)O)cc2N)c1` [Exp. 3-19, (R)-2-amino-3′-(N-(2-hydroxy-3-(2-methyl-1-(naphthalen-2-yl)propan-2-ylamino)propyl)-N-methylsulfamoyl)biphenyl-4-carboxylic acid], the IC50 is 300 to 1000 nM.

Turning to `CCc1cc(-c2c(F)cccc2CCC(=O)O)ccc1S(=O)(=O)N(C)C[C@H](O)CNC(C)(C)CCCc1ccsc1` [Exp. 8-24, (R)-3-(3′-ethyl-6-fluoro-4′-(N-(2-hydroxy-3-(2-methyl-5-(thiophen-3-yl)pentan-2-ylamino)propyl)-N-methylsulfamoyl)biphenyl-2-yl)propionic acid], the IC50 was no more than 300 nM.

On to `CN(C[C@H](O)CNC(C)(C)Cc1ccc2ccccc2c1)S(=O)(=O)c1cccc(-c2ccc(C(=O)O)c(Cl)c2)c1` [Exp. 3-11, (R)-3-chloro-3′-(N-(2-hydroxy-3-(2-methyl-1-(naphthalen-2-yl)propan-2-ylamino)propyl)-N-methylsulfamoyl)biphenyl-4-carboxylic acid], for which the IC50 was in the range of 300 to 1000 nM.

As to `CN(C[C@H](O)CNC(C)(C)Cc1ccc(Cl)c(F)c1)S(=O)(=O)c1cccc(-c2ccc(CCC(=O)O)cc2)c1` [Exp. 3-78, (R)-3-(3′-(N-(3-(1-(4-chloro-3-fluorophenyl)-2-methylpropan-2-ylamino)-2-hydroxypropyl)-N-methylsulfamoyl)biphenyl-4-yl)propionic acid], the IC50 lay within 1000 to 3000 nM.

As for `CN(C[C@H](O)CNC(C)(C)Cc1ccc2ccccc2c1)S(=O)(=O)c1ccc(-c2cc(C(=O)O)cc([N+](=O)[O-])c2)cc1` [Exp. 3-40, (R)-4′-(N-(2-hydroxy-3-(2-methyl-1-(naphthalen-2-yl)propan-2-ylamino)propyl)-N-methylsulfamoyl)-5-nitrobiphenyl-3-carboxylic acid], the IC50 fell in the range of 300 to 1000 nM.

In the case of `CN(C[C@H](O)CNC(C)(C)CCCc1ccccc1)S(=O)(=O)c1c(Cl)cc(-c2cccc(CCC(=O)O)c2)cc1Cl` [Exp. 6-6, (R)-3-(3′,5′-dichloro-4′-(N-(2-hydroxy-3-(2-methyl-5-phenylpentan-2-ylamino)propyl)-N-methylsulfamoyl)biphenyl-3-yl)propionic acid], the IC50 is no more than 300 nM.

With `Cc1ccc(-c2cccc(S(=O)(=O)N(C)C[C@H](O)CNC(C)(C)Cc3ccc4ccccc4c3)c2)cc1C(=O)O` [Exp. 3-7, (R)-3′-(N-(2-hydroxy-3-(2-methyl-1-(naphthalen-2-yl)propan-2-ylamino)propyl)-N-methylsulfamoyl)-4-methylbiphenyl-3-carboxylic acid], the IC50 was 300 to 1000 nM.

As for `CN(C[C@H](O)CNC(C)(C)Cc1ccc2ccccc2c1)S(=O)(=O)c1ccccc1-c1cccc(C=CC(=O)O)c1` [Exp. 3-1, (R)-3-(2′-(N-(2-hydroxy-3-(2-methyl-1-(naphthalen-2-yl)propan-2-ylamino)propyl)-N-methylsulfamoyl)biphenyl-3-yl)acrylic acid], the IC50 was 300 to 1000 nM.

For `CN(C[C@H](O)CNC(C)(C)Cc1ccc2ccccc2c1)S(=O)(=O)c1cccc(-c2ccc(C(=O)O)c(F)c2)c1` [Exp. 3-9, (R)-3-fluoro-3′-(N-(2-hydroxy-3-(2-methyl-1-(naphthalen-2-yl)propan-2-ylamino)propyl)-N-methylsulfamoyl)biphenyl-4-carboxylic acid], the IC50 fell in the range of 300 to 1000 nM.

For the compound `CN(C[C@H](O)CNC(C)(C)CCCc1ccsc1)S(=O)(=O)c1cc(-c2ccc(CCC(=O)O)cc2)cc(C(F)(F)F)c1` [Exp. 9-75, (R)-3-(3′-(N-(2-hydroxy-3-(2-methyl-5-(thiophen-3-yl)pentan-2-ylamino)propyl)-N-methylsulfamoyl)-5′-(trifluoromethyl)biphenyl-4-yl)propionic acid], the concentration for half-maximal inhibition (IC50) is no more than 300 nM.

With `CN(C[C@H](O)CNC(C)(C)CC1Cc2ccccc2C1)S(=O)(=O)c1cccc(-c2ccc(C(=O)O)c(Cl)c2)c1` [Exp. 3-54, (R)-3-chloro-3′-(N-(3-(1-(2,3-dihydro-1H-inden-2-yl)-2-methylpropan-2-ylamino)-2-hydroxypropyl)-N-methylsulfamoyl)biphenyl-4-carboxylic acid], the half-maximal inhibitory concentration (IC50) was no more than 300 nM.

On to `CN(C[C@H](O)CNC(C)(C)Cc1ccc2ccccc2c1)S(=O)(=O)c1cccc(-c2cc3c(c(C(=O)O)c2)OCC3)c1` [Exp. 3-13, (R)-5-(3-(N-(2-hydroxy-3-(2-methyl-1-(naphthalen-2-yl)propan-2-ylamino)propyl)-N-methylsulfamoyl)phenyl)-2,3-dihydrobenzofuran-7-carboxylic acid], for which the 50% inhibitory concentration (IC50) lay in the range of 1000 to 3000 nM.

With `Cc1ccc(-c2ccc(S(=O)(=O)N(C)C[C@H](O)CNC(C)(C)Cc3ccc4ccccc4c3)cc2)cc1C(=O)O` [Exp. 3-32, (R)-4′-(N-(2-hydroxy-3-(2-methyl-1-(naphthalen-2-yl)propan-2-ylamino)propyl)-N-methylsulfamoyl)-4-methylbiphenyl-3-carboxylic acid], the IC50 lay in the range of 1000 to 3000 nM.

Turning to `CN(C[C@H](O)CNC(C)(C)Cc1ccc2ccccc2c1)S(=O)(=O)Cc1ccccc1-c1cccc(C=CC(=O)O)c1` [Exp. 3-84, (R)-3-(2′-((N-(2-hydroxy-3-(2-methyl-1-(naphthalen-2-yl)propan-2-ylamino)propyl)-N-methylsulfamoyl)methyl)biphenyl-3-yl)acrylic acid], the IC50 lay within 1000 to 3000 nM.

In the case of `CN(C[C@H](O)CNC(C)(C)Cc1ccc2ccccc2c1)S(=O)(=O)c1cccc(-c2ccc(C(=O)O)c(N)c2)c1` [Exp. 3-10, (R)-3-amino-3′-(N-(2-hydroxy-3-(2-methyl-1-(naphthalen-2-yl)propan-2-ylamino)propyl)-N-methylsulfamoyl)biphenyl-4-carboxylic acid], the half-inhibitory concentration (IC50) is no more than 300 nM.
